The values below come from US20220356170A1, “SREBP INHIBITOR COMPRISING A THIOPHENE CENTRAL RING” (Capulus Therapeutics, LLC, priority 2019, published 2022).

Usually half-life stands for the time needed for the level to fall by half in the phase considered. Usually AUC(0-inf) stands for total exposure, with the tail of the curve extrapolated. A higher AUC(0-inf) goes with high exposure. Usually AUC(0-t) stands for exposure summed from dosing to a finite time, without extrapolation to infinity. In general, clearance refers to the volume of plasma or blood freed of the substance per unit of time. Low readings indicate a low capacity for elimination, high ones a high capacity for elimination. What is called EC50 is the concentration at which the effect is half-maximal. Read a high EC50 as a less potent agent.

The nature of series [1]: Half-life in mouse liver microsomes. Type of series: in vitro ADME. The conditions noted are these: read-out: Mouse LM: Half life. As to the method:
Half-life Human Microsomes: Compound 1 was evaluated for stability in human liver microsomes. A 10 mM stock solution of Compound 1 was prepared in DMSO and diluted with water: acetonitrile (1:1) to a concentration of 1 mM. A working concentration of 100 μM was prepared by further dilution with water: acetonitrile (1:1). To make the preincubation mixture, 2.5 μL of the diluted Compound 1 was combined with 75 μL of human liver microsomes at 3.33 mg/mL, and 85 μL of 100 mM potassium phosphate buffer, and this mixture pre-incubated for 10 min at 37° C. To make the 60 minute mixture without cofactor, 32.5 μL of the preincubation mixture was combined with 17.5 μL of 100 mM potassium phosphate buffer and incubated for 60 min at 37° C. […] To prepare the sample mixture to be evaluated, 25 μL incubation mixture was combined with 200 μL of acetonitrile containing internal standard and vortexed for 5 min at 1200 rpm, then centrifuged for 10 min at 4000 rpm. […] The sample mixture was evaluated by LC-MS/MS using 10 mM ammonium acetate with 0.1% FA as the aqueous mobile phase, and methanol as the organic mobile phase.
Half-life Rat and Mouse Microsomes: Compound 1 was evaluated in rat and mouse liver microsomes following a similar procedure as described above for human liver microsomes.
On the technique in general: Liver microsomes are vesicles of endoplasmic reticulum, rich in cytochrome P450 enzymes.

The nature of series [2]: In vivo pharmacokinetics, intravenous. The conditions noted are these: male C57 BL/6 mice, dose 2.00 mg/kg (Compound 1), 2.43 mg/kg (Compound 2); for Vd: male, C57 BL/6, mouse, iv. The procedure: The in vivo pharmacokinetic properties of Compound 1 by both intravenous and oral administration were evaluated in male C57 BL/6 mice. The in vivo pharmacokinetic properties of Compound 2 by both intravenous and oral administration were evaluated in male C57 BL/6 mice for comparison.
Animals were housed in cages with clean bedding. Certified rodent diet was provided. Water was available ad libitum. Environmental controls for the animal room were set to maintain a temperature of 22 to 25° C., humidity of 40-70% RH, and a 12-hour light /12-hour dark cycle. Normal healthy animals certified by the attending veterinarian were selected and acclimatized for minimum three days prior to initiation of study.
Procedure for Blood Withdrawal: Mice were anesthetized using gaseous anesthesia. Blood samples were collected through a capillary, guided in retro-orbital plexus. At each time point, blood samples from 3 mice of each respective group were collected. The blood samples were collected in pre-labeled tubes. 0.2 to 0.3 mL of blood were collected from each mouse. After collection of the blood samples at each time point, the samples were stored on ice prior to centrifugation. Blood samples were centrifuged within 15 minutes to separate plasma. Centrifugations was done at 1540 rcf (5000 rpm) at 4° C. for 10 minutes. The plasma was separated and transferred to pre-labeled micro-centrifuge tubes and promptly frozen at −80±10° C. until bioanalysis was performed. Samples were identified by test item, group, animal number, and collection time point.
To evaluate pharmacokinetic properties of intravenous delivery, nine male C57 BL/6 mice were administered 2.00 mg Compound 1/kg animal weight through the tail vein. The concentration of Compound 1 in the plasma of the animals was evaluated at 0.083, 0.25, 0.5, 1, 2, 4, 8, and 24 hr by taking blood samples from the mice. Compound 2 was similarly administered for comparison.

The subject of series [3] is HepG2 stably expressing LSS-Luciferase transgene (SREBP transcriptional activity). Description: Reporter screening assay, SRE-luciferase reporter. The settings on record: Homo sapiens, 0% FCS media, 24 hours. The series is classed as cell-based. The procedure:
The effect of Compound 1 on transcriptional activity SREBP was evaluated using an SRE-luciferase reporter construct.
After 24 hours incubation medium cells were treated with various Lovastatin concentrations (10 μM, 5 μM and 1 μM). After 24 hours treatment plates were covered with aluminum foil and frozen at −80° C. overnight. Plates were thawed to room temperature and Luciferase assay was performed. Cells were seeded in a 96 well plate in 10% FCS DMEM media and incubated for 24 hours. Then, they are switched to 0% FCS Media with Compound 1 or DMSO control for another 24 hours, at which point they are assayed for activity of LSS-reporter.
Reagents for performing Luciferase assay were stored at −20° C. To a tube of lyophilized assay substrate was added 1 mL Substrate Solvent and mixed well. The Substrate tube after reconstitution was covered with aluminum foil so as to keep it protected from light. […]
Using a multi-channel pipette, 100 μL Assay Solution (buffer+substrate) was added directly to each sample well in Plate 1, which was incubated for 30 min (plate was covered with aluminum foil). After 30 min incubation, the plate was read for total luminescence. Each well was read for 2 seconds in a plate luminometer. (Microplate reader Envision Microplate reader from Perkin Elmer). Precaution was taken to incubate plate exactly for 30 min prior to reading on the plate reader. […]
For orientation: A reporter such as luciferase makes a cellular process visible.

Read-outs that look alike come from different tables or passages of the source.

As to `CC(C)(O)c1cc(-c2csc(-c3ccc(C(=O)N4CCC(O)CC4)cc3Cl)c2)ccn1` [Compound 1, (3-chloro-4-(4-(2-(2-hydroxypropan-2-yl)pyridin-4-yl)thiophen-2-yl)phenyl)(4-hydroxypiperidin-1-yl)methanone], in series [1], the half-life at 1 µM turned out to be 2 h. In series [2], this compound yielded an AUCExtra of 7.27%. Also, the Vd in series [2] (plasma, read-out: Vd) stood at 0.73 L/kg. Besides, in series [2] (plasma, read-out: Vss), the Vd was found to be 0.7 L/kg. Also, in series [2] (mouse, plasma), the AUC(0-inf) turned out to be 25700 ng·h/mL, the AUC(0-t) turned out to be 23800 ng·h/mL, the C0 was determined as 4630 ng/mL and the clearance was 1.3 mL/min/kg. The same compound showed a half-life in series [2] (mouse, plasma) of 6.5 h. The MRT last in series [2] (mouse, plasma, read-out: MRT0-last) turned out to be 7.07 h. The compound further had a concentration for a half-maximal effect (EC50) in series [3] of 150 nM.
